Experiment [1] concerns acetic acid-induced writhes (abdominal constriction). The experiment is described as follows: Writhing test (0.6% acetic acid). The class given is in vivo, ICR mice. Conditions: mouse, oral, 0.5 h; read-out: Writ htest: ED50. The method, then: To examine the pain relief effect of the sulfamate derivative compounds, a writhing test was conducted in general pain animal model referring to Fischer, L. G. et al. (2008).
ICR mice (male, 24-28 g; Orient Bio, Korea) were habituated before test in test room for 1 hour. Animals were fasted 2 hr, before administration of compounds. Compounds was orally administered at the close of 20 mg/kg, 10 ul/g, bw (n=3˜5/group). All compounds were dissolved in a vehicle of 30% (v/v) PEG 400 or 20% (v/v) Tween 80. The control group was treated the vehicle without compounds.
[…] Animals were habituated in the cage for 5 min. 5 min after habituation, the number of writhes (abdominal constriction) for 15 min was counted referring to Korzeniewska-Rybicka, I. et al. (1998) and compared with that of a control.
In general terms: Writhing tests count abdominal constrictions after an irritant is injected.

The subject of experiment [2] is Vincristine-induced pain model. The experiment is described as follows: Antiallodynic activity on vincristine-induced pain model (von Frey). The format is in vivo, Sprague-Dawley rats. Conditions: ip, rat, intraperitoneal, 0.5 h. Here is the method: Male, Sprague-Dawley rats (300-320 g, Nara Bio, Korea) were habituated for 1 week before surgery and allowed free access to food and water throughout the experimentation. Room temperature and humidity were maintained at 24±2° C. and 50±10%, respectively.
Vincristine was established by the procedure of Natsuko et al. (2001) with minor modifications. Vincristine was intravenously infused continuously for 14 clays using a mini-osmotic pump as follows. Vincristine sulfate solution (Hospira, Australia) was diluted with 0.9% saline to 30 ug/kg, final close. The pumps (Alzet Model 2002, USA) were filled with the vincristine solution and primed by incubation at 37° C. for 4 h before the infusion. […]
(§1) Tactile sensitivity (Mechanical allodynia) was evaluated using von Frey monofilaments before and after treatment, and animals were used withdrawal threshold value was less than 4 g. […] The tactile sensitivity for ipsilateral hind paw was measured using the up-and-down method (Dixon, 1980) with seven von Frey monofilaments (0.4, 1, 2, 4, 6, 8, and 15 g) to 3 trials. […] The 50% paw withdrawal threshold for each paw was calculated using the following formula: [Xth] log=[vFr] log+ky where [vFr] is the force of the last von Frey used, k=0.2249 which is the average interval (in log units) between the von Frey monofilaments, and y is a value that depends upon the pattern of withdrawal responses (Dixon, 1980). […]

For the next experiment, the system named is STZ-induced pain model. The experiment is described as follows: Antiallodynic activity on streptozotocin (STZ)-induced diabetic pain model (von Frey). The format is in vivo, Sprague-Dawley rats. Conditions: ip, rat, intraperitoneal, 0.5 h. Here is the method:
Male, Sprague-Dawley rats (200-220 g, Nara Bio, Korea) were habituated for 1 week before surgery and allowed free access to food and water throughout the experimentation. Room temperature and humidity were maintained at 24±2° C. and 50±10%, respectively.
STZ-induced diabetic pain model was established with a modified method of Rakieten et al. (1963) and Bertrand Aubel et al. (2004). All animals were fasted 4 to 6 hr prior to STZ injection. STZ (sigma, USA) was dissolved in 20 mM sodium citrate buffer, pH 5.5 (sigma, USA) and intraperitoneally injected at 75 mg/kg, 4 ul/g, bw into the rats. […]
as §1, with “treatment of the compound of Examples” for “treatment,”, “used” for “used,”

We go through one molecule from US9834535B2, “Sulfamate derivative compounds for use in treating or alleviating pain” (Bio-Pharm Solutions Co., Ltd., priority 2013, dated 2017).

Broadly, the ED50 is the midpoint of the dose-response relation. As for `CC1(C)O[C@@H](COS(N)(=O)=O)[C@H](c2ccccc2Cl)O1` [Example 2, ((4S,5S)-5-(2-chlorophenyl)-2,2-dimethyl-1,3-dioxolan-4-yl)methyl sulfamate], the ED50 in experiment [1] came to 28.4 mg/kg; in experiment [2], 1 mg/kg; in the experiment on STZ-induced pain model it was 7.9 mg/kg.
